Results: the NIST ThermoML archive (doi:10.1016/j.tca.2005.03.009)

Experiment: excess molar enthalpy (molar enthalpy of mixing); xn = mol fraction of the nth substance listed
Conditions: 298.15 K, 10000 kPa, Liquid, Flow calorimetry

CCC(C)=O [butanone] + CCOC(C)=O
Conditions	excess molar enthalpy [kcal/mol]
x2 = 0.047	0.0711
x2 = 0.082	0.119
x2 = 0.118	0.165
x2 = 0.153	0.201
x2 = 0.189	0.24
x2 = 0.225	0.271
x2 = 0.262	0.301
x2 = 0.298	0.323
x2 = 0.335	0.346
x2 = 0.371	0.362
x2 = 0.408	0.378
x2 = 0.446	0.389
x2 = 0.483	0.4
x2 = 0.52	0.405
x2 = 0.558	0.403
x2 = 0.596	0.401
x2 = 0.634	0.387
x2 = 0.673	0.374
x2 = 0.711	0.354
x2 = 0.75	0.33
x2 = 0.789	0.296
x2 = 0.828	0.261
x2 = 0.867	0.216
x2 = 0.907	0.163
x2 = 0.947	0.103
x2 = 0.96	0.0773
x2 = 0.974	0.0518

CCOC(C)=O [ethyl acetate] + CC(C)O
Conditions	excess molar enthalpy [kcal/mol]
x1 = 0.039	0.065
x1 = 0.07	0.114
x1 = 0.1	0.155
x1 = 0.132	0.192
x1 = 0.163	0.228
x1 = 0.196	0.259
x1 = 0.229	0.289
x1 = 0.262	0.313
x1 = 0.296	0.336
x1 = 0.331	0.356
x1 = 0.366	0.372
x1 = 0.402	0.387
x1 = 0.439	0.395
x1 = 0.476	0.404
x1 = 0.514	0.409
x1 = 0.553	0.406
x1 = 0.592	0.402
x1 = 0.632	0.39
x1 = 0.673	0.374
x1 = 0.715	0.351
x1 = 0.758	0.321
x1 = 0.801	0.283
x1 = 0.845	0.239
x1 = 0.891	0.182
x1 = 0.937	0.115
x1 = 0.952	0.0903
x1 = 0.969	0.0607

CCOC(C)=O [ethyl acetate] + CCCO
Conditions	excess molar enthalpy [kcal/mol]
x1 = 0.039	0.0599
x1 = 0.068	0.0949
x1 = 0.098	0.129
x1 = 0.129	0.161
x1 = 0.16	0.19
x1 = 0.192	0.22
x1 = 0.225	0.243
x1 = 0.258	0.268
x1 = 0.291	0.288
x1 = 0.326	0.306
x1 = 0.361	0.326
x1 = 0.396	0.338
x1 = 0.433	0.349
x1 = 0.47	0.355
x1 = 0.508	0.361
x1 = 0.547	0.362
x1 = 0.586	0.359
x1 = 0.627	0.35
x1 = 0.668	0.339
x1 = 0.71	0.321
x1 = 0.753	0.296
x1 = 0.797	0.265
x1 = 0.842	0.223
x1 = 0.888	0.173
x1 = 0.935	0.109
x1 = 0.951	0.0839
x1 = 0.968	0.0573

CCOC(C)=O [ethyl acetate] + CCO
Conditions	excess molar enthalpy [kcal/mol]
x1 = 0.03	0.0337
x1 = 0.054	0.0591
x1 = 0.078	0.0875
x1 = 0.104	0.112
x1 = 0.13	0.135
x1 = 0.157	0.158
x1 = 0.184	0.18
x1 = 0.213	0.202
x1 = 0.243	0.223
x1 = 0.274	0.241
x1 = 0.306	0.259
x1 = 0.339	0.274
x1 = 0.373	0.288
x1 = 0.409	0.299
x1 = 0.446	0.31
x1 = 0.485	0.317
x1 = 0.525	0.32
x1 = 0.567	0.318
x1 = 0.611	0.313
x1 = 0.657	0.301
x1 = 0.705	0.285
x1 = 0.754	0.26
x1 = 0.807	0.226
x1 = 0.861	0.182
x1 = 0.919	0.122
x1 = 0.939	0.0955
x1 = 0.96	0.0656

CCOC(C)=O [ethyl acetate] + CO
Conditions	excess molar enthalpy [kcal/mol]
x1 = 0.057	0.0436
x1 = 0.086	0.0651
x1 = 0.113	0.0798
x1 = 0.188	0.125
x1 = 0.257	0.163
x1 = 0.319	0.193
x1 = 0.377	0.214
x1 = 0.43	0.231
x1 = 0.478	0.238
x1 = 0.524	0.242
x1 = 0.566	0.241
x1 = 0.605	0.236
x1 = 0.641	0.234
x1 = 0.675	0.226
x1 = 0.707	0.218
x1 = 0.738	0.208
x1 = 0.766	0.196
x1 = 0.793	0.183
x1 = 0.818	0.17
x1 = 0.842	0.156
x1 = 0.864	0.14
x1 = 0.886	0.124
x1 = 0.906	0.107
x1 = 0.926	0.0879
x1 = 0.944	0.068
x1 = 0.962	0.0478
x1 = 0.979	0.0253
